Measured values published in publication PMC11850817 (Scientific Reports, 2025).

How the values were obtained:
EGFR = EGFR (Homo sapiens, UniProt P00533); assay: Radiometric kinase assay; type: biochemical; conditions: read-out: Kinase inhibition (%) EGFR
IGF1R = IGF1R (Homo sapiens, UniProt P08069); assay: Radiometric kinase assay; type: biochemical; conditions: read-out: Kinase inhibition (%) IGF1R
ABL1 = ABL1 (Homo sapiens, UniProt P00519); assay: Radiometric kinase assay; type: biochemical; conditions: read-out: Kinase inhibition (%) ABL1
PIK3CA = PIK3CA (Homo sapiens, UniProt P42336); assay: Radiometric kinase assay; type: biochemical; conditions: read-out: Kinase inhibition (%) PIK3CA
ERBB2 (Her-2) = ERBB2 (Her-2) (Homo sapiens, UniProt P04626); assay: Radiometric kinase assay; type: biochemical; conditions: read-out: Kinase inhibition (%) ERBB2 (Her-2)
CDK2/cyclin A = CDK2/cyclin A (Homo sapiens, UniProt P24941); assay: Radiometric kinase assay; type: biochemical; conditions: for inhibition at 10 µM: read-out: Kinase inhibition (%) CDK2/cyclin A
MAP2K1 = MAP2K1 (Homo sapiens, UniProt Q02750); assay: Radiometric kinase assay; type: biochemical; conditions: read-out: Kinase inhibition (%) MAP2K1
NIH3T3 = assay: MTT assay, NIH3T3 non-cancer cell line; type: cell-based; conditions: Mus musculus, NIH3T3, 72 h, read-out: IC50 NIH3T3
Mia-Paca-2 = assay: MTT antiproliferative assay, Mia-Paca-2; type: cell-based, human; conditions: Homo sapiens, MIA PaCa-2, 72 h, read-out: IC50 Mia-Paca-2
PDGFRA (PDGFRα) = PDGFRA (PDGFRα) (Homo sapiens, UniProt P16234); assay: Radiometric kinase assay; type: biochemical; conditions: for inhibition at 10 µM: read-out: Kinase inhibition (%) PDGFRA (PDGFRα)
MCF-7 = assay: MTT antiproliferative assay, MCF-7; type: cell-based, human; conditions: Homo sapiens, MCF7, 72 h, read-out: IC50 MCF-7
AURKA = AURKA (Homo sapiens, UniProt O14965); assay: Radiometric kinase assay; type: biochemical; conditions: read-out: Kinase inhibition (%) AURKA
AKT1 = AKT1 (Homo sapiens, UniProt P31749); assay: Radiometric kinase assay; type: biochemical; conditions: read-out: Kinase inhibition (%) AKT1
CDK6/cyclinD3 = CDK6/cyclinD3 (Homo sapiens, UniProt Q00534); assay: Radiometric kinase assay; type: biochemical; conditions: read-out: Kinase inhibition (%) CDK6/cyclinD3
FLT4 (VEGFR3) = FLT4 (VEGFR3) (Homo sapiens, UniProt P35916); assay: Radiometric kinase assay; type: biochemical
KDR (VEGFR2) = KDR (VEGFR2) (Homo sapiens, UniProt P35968); assay: Radiometric kinase assay; type: biochemical; conditions: read-out: Kinase inhibition (%) KDR (VEGFR2)
AXL = target: T1, AXL (Homo sapiens, UniProt P30530); assay: Radiometric kinase assay; type: biochemical; conditions: read-out: Kinase inhibition (%) AXL
T1 sequence (P30530 26-894): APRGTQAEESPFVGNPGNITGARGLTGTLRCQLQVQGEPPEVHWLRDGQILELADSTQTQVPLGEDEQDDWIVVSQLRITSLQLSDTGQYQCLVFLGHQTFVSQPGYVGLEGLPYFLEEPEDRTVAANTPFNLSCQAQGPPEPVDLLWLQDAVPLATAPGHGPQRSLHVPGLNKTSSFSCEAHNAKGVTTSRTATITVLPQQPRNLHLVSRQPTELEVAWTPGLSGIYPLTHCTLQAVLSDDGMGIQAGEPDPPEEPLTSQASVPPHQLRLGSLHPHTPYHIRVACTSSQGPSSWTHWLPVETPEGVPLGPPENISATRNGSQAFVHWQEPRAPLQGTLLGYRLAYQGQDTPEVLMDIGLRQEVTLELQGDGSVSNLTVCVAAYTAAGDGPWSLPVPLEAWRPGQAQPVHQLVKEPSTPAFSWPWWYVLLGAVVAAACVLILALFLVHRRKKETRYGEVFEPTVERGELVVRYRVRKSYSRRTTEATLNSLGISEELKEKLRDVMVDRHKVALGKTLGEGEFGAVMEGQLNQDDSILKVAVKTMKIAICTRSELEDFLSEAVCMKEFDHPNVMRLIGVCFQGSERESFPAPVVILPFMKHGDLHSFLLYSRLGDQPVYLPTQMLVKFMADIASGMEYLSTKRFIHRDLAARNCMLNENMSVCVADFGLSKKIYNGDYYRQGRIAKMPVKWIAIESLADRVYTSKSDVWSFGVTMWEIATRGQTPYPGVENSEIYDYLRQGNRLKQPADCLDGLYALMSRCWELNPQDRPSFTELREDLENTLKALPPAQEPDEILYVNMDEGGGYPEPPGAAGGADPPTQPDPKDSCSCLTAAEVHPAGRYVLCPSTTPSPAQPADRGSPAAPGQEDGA

WEE1 = WEE1 (Homo sapiens, UniProt P30291); assay: Radiometric kinase assay; type: biochemical; conditions: read-out: Kinase inhibition (%) WEE1
ROS1 = ROS1 (Homo sapiens, UniProt P08922); assay: Radiometric kinase assay; type: biochemical; conditions: read-out: Kinase inhibition (%) ROS1
KIT (c-Kit) = KIT (c-Kit) (Homo sapiens, UniProt P10721); assay: Radiometric kinase assay; type: biochemical; conditions: read-out: Kinase inhibition (%) KIT (c-Kit)
NTRK1 (TrkA) = NTRK1 (TrkA) (Homo sapiens, UniProt P04629); assay: Radiometric kinase assay; type: biochemical; conditions: read-out: Kinase inhibition (%) NTRK1 (TrkA)
ALK = ALK (Homo sapiens, UniProt Q9UM73); assay: Radiometric kinase assay; type: biochemical; conditions: read-out: Kinase inhibition (%) ALK
FGFR1 = FGFR1 (Homo sapiens, UniProt P11362); assay: Radiometric kinase assay; type: biochemical; conditions: read-out: Kinase inhibition (%) FGFR1
CHEK1 = CHEK1 (Homo sapiens, UniProt O14757); assay: Radiometric kinase assay; type: biochemical; conditions: read-out: Kinase inhibition (%) CHEK1
NTRK3 (TrkC) = NTRK3 (TrkC) (Homo sapiens, UniProt Q16288); assay: Radiometric kinase assay; type: biochemical; conditions: read-out: Kinase inhibition (%) NTRK3 (TrkC)
BRAF = BRAF (Homo sapiens, UniProt P15056); assay: Radiometric kinase assay; type: biochemical; conditions: read-out: Kinase inhibition (%) BRAF
AKT2 = AKT2 (Homo sapiens, UniProt P31751); assay: Radiometric kinase assay; type: biochemical; conditions: read-out: Kinase inhibition (%) AKT2
HT-29 = assay: MTT antiproliferative assay, HT-29; type: cell-based, human; conditions: Homo sapiens, HT-29, 72 h, read-out: IC50 HT-29
PDGFRB (PDGFRβ) = PDGFRB (PDGFRβ) (Homo sapiens, UniProt P09619); assay: Radiometric kinase assay; type: biochemical; conditions: read-out: Kinase inhibition (%) PDGFRB (PDGFRβ)
AsPC-1 cells [1] = assay: Apoptosis by Hoechst 33,258 staining; type: cell-based, human; conditions: AsPC-1, 10 and 30 µM, 48 h
EBC-1 = assay: MTT antiproliferative assay, EBC-1; type: cell-based, human; conditions: Homo sapiens, EBC-1, 72 h, read-out: IC50 EBC-1
AsPC-1 = assay: MTT antiproliferative assay, AsPC-1; type: cell-based, human; conditions: Homo sapiens, ASPC1, 72 h, read-out: IC50 AsPC-1
FLT1 (VEGFR1) = FLT1 (VEGFR1) (Homo sapiens, UniProt P17948); assay: Radiometric kinase assay; type: biochemical; conditions: read-out: Kinase inhibition (%) FLT1 (VEGFR1)
AsPC-1 cells [2] = assay: Cell cycle test, RNase/PI flow cytometry; type: cell-based, human; conditions: AsPC-1, 3, 10, 30, 50 µM, 48 h
NTRK2 (TrkB) = NTRK2 (TrkB) (Homo sapiens, UniProt Q16620); assay: Radiometric kinase assay; type: biochemical; conditions: read-out: Kinase inhibition (%) NTRK2 (TrkB)
FLT3 = FLT3 (Homo sapiens, UniProt P36888); assay: Radiometric kinase assay; type: biochemical; conditions: read-out: Kinase inhibition (%) FLT3
MET = MET (Homo sapiens, UniProt P08581); assay: Radiometric kinase assay; type: biochemical; conditions: read-out: Kinase inhibition (%) MET

Chain of PDGFRA (PDGFRα) (P16234 24-1089): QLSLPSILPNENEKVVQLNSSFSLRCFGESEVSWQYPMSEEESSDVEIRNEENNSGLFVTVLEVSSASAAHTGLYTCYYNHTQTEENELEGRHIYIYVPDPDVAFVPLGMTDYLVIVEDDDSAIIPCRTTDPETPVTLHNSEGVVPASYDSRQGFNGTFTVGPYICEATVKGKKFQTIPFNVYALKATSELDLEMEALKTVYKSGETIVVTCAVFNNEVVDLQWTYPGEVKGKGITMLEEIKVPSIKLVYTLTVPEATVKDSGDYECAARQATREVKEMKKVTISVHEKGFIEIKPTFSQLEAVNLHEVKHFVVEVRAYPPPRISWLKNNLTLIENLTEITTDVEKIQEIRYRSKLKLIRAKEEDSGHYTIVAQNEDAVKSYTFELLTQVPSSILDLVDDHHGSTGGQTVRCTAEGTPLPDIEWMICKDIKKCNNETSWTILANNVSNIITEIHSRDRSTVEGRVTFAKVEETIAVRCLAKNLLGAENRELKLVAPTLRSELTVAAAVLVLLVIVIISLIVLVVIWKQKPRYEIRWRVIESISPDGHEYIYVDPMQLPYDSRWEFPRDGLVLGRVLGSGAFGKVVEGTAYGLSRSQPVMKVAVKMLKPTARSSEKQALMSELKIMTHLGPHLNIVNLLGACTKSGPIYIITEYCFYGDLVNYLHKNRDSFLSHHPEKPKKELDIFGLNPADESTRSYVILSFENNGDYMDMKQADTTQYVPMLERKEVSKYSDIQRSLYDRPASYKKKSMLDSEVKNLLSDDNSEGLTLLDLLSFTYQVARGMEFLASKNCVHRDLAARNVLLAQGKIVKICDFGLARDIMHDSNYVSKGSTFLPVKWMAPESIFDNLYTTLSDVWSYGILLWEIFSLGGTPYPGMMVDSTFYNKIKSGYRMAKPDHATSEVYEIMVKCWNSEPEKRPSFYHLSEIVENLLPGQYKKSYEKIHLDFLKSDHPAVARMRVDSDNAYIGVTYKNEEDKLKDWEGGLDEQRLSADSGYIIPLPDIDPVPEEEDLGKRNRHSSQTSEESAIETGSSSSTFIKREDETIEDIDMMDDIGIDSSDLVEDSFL
Chain of AKT1 (P31749 whole entry): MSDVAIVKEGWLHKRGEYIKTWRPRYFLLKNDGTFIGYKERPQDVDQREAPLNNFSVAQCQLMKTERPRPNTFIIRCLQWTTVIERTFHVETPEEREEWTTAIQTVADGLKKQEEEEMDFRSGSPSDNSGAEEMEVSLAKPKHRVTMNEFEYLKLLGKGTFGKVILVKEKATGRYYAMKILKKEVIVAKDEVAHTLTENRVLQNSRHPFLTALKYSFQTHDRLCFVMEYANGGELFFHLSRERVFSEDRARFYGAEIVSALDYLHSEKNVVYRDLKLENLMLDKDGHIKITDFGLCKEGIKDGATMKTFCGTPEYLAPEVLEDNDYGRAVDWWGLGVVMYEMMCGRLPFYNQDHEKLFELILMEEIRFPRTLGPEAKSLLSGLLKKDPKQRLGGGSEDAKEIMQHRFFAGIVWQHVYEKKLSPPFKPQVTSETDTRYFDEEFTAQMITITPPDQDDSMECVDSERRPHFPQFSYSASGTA
Chain of AKT2 (P31751 whole entry): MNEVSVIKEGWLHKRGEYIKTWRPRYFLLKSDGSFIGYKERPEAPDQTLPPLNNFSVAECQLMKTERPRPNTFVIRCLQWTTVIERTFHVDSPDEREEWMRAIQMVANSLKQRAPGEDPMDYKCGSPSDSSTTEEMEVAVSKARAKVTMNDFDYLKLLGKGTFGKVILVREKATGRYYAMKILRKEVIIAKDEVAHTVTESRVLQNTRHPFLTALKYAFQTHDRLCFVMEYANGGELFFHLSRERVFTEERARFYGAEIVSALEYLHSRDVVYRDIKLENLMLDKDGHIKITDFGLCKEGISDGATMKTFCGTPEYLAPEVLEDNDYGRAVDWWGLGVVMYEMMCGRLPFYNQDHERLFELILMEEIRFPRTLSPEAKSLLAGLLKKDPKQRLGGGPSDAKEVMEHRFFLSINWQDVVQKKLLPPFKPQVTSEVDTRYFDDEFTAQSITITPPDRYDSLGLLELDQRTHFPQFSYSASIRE
Chain of KIT (c-Kit) (P10721 26-976): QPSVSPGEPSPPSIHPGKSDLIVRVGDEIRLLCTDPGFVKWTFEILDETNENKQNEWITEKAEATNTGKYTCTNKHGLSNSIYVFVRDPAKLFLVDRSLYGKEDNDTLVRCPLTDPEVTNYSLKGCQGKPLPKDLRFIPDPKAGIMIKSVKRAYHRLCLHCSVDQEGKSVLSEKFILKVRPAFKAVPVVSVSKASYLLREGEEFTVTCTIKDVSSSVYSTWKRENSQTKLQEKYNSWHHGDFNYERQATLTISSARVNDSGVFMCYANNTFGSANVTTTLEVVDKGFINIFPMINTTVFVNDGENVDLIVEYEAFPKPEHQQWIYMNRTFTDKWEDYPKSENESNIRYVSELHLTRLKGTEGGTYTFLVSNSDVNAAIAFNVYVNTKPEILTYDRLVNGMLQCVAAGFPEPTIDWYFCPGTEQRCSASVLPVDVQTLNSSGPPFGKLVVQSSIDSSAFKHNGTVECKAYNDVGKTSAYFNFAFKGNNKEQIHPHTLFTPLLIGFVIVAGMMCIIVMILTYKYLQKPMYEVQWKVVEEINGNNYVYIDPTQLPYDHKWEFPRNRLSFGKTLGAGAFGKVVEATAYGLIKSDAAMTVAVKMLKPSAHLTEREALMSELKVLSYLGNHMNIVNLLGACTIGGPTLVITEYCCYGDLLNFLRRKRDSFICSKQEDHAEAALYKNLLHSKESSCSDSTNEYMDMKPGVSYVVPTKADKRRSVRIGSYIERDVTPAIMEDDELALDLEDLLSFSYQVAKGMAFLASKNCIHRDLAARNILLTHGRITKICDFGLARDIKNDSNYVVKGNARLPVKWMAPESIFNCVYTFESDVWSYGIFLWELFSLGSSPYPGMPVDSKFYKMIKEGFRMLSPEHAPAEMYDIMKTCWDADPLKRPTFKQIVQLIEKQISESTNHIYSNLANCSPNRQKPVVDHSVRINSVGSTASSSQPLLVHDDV
Chain of FLT1 (VEGFR1) (P17948 27-1338): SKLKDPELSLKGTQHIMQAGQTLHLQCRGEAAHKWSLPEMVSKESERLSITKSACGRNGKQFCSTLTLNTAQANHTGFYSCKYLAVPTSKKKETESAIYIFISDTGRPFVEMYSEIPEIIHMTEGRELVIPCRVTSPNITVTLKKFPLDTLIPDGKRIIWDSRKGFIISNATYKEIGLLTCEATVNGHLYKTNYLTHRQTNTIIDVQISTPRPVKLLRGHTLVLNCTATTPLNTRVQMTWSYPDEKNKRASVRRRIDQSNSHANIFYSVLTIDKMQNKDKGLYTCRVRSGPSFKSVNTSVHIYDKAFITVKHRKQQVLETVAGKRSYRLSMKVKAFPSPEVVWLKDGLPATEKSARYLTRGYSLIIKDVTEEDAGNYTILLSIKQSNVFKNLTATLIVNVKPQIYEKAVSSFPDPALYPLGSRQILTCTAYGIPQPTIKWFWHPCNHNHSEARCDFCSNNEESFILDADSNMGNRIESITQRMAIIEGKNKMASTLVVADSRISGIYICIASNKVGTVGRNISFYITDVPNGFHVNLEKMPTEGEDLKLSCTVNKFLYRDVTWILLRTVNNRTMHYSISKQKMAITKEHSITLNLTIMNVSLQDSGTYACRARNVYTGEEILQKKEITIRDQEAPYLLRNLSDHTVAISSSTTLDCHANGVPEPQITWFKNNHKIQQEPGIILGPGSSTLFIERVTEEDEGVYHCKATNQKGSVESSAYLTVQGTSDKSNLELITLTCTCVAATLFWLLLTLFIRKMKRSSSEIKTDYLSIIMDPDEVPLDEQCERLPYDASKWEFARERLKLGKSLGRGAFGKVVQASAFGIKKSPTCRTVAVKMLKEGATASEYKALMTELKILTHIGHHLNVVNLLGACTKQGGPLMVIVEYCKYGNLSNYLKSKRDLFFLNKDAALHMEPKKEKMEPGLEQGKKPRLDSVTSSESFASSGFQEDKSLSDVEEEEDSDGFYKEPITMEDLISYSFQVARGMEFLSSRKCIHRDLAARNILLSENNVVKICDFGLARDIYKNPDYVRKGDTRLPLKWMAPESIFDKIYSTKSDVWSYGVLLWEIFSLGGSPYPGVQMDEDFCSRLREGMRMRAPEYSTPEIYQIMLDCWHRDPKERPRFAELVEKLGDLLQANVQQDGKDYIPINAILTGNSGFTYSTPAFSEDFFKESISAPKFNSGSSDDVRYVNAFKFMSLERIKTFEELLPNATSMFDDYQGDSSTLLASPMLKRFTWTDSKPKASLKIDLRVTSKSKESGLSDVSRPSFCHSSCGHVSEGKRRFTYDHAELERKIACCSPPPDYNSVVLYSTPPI
Chain of NTRK1 (TrkA) (P04629 33-796): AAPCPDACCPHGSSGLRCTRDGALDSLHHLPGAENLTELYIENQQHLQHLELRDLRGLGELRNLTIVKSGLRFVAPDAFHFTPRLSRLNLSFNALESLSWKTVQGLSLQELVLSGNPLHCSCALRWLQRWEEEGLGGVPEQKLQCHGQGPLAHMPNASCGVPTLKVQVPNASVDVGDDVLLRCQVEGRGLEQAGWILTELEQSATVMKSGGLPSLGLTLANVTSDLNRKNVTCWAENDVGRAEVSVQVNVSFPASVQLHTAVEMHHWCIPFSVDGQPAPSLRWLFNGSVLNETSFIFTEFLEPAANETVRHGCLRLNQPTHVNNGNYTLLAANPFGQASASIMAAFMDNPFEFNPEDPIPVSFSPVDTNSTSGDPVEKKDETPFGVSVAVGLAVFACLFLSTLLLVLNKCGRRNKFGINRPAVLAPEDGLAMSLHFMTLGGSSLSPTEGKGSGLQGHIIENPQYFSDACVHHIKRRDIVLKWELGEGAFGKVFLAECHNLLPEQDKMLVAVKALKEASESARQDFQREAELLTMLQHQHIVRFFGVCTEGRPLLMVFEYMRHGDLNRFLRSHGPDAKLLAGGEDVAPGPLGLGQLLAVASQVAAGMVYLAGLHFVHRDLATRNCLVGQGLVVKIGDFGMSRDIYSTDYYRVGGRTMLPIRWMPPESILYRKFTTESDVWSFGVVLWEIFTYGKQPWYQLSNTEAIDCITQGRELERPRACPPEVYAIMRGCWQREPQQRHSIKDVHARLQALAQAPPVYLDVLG

| SMILES | inhibition at 10 µM (EGFR) [%] | inhibition at 10 µM (ABL1) [%] | inhibition at 10 µM (CDK2/cyclin A) [%] | IC50 (NIH3T3) [µM] | IC50 (Mia-Paca-2) [nM] | inhibition at 10 µM (PDGFRA (PDGFRα)) [%] | IC50 (MCF-7) [µM] | inhibition at 10 µM (AKT1) [%] | inhibition at 10 µM (KDR (VEGFR2)) [%] | inhibition at 10 µM (AXL) [%] | inhibition at 10 µM (KIT (c-Kit)) [%] | inhibition at 10 µM (NTRK1 (TrkA)) [%] | inhibition at 10 µM (ALK) [%] | inhibition at 10 µM (FGFR1) [%] | inhibition at 10 µM (AKT2) [%] | IC50 (HT-29) [µM] | inhibition at 10 µM (PDGFRB (PDGFRβ)) [%] | IC50 (EBC-1) [µM] | IC50 (AsPC-1) [µM] | inhibition at 10 µM (FLT1 (VEGFR1)) [%] | also measured |
| --- | --- | --- | --- | --- | --- | --- | --- | --- | --- | --- | --- | --- | --- | --- | --- | --- | --- | --- | --- | --- | --- |
| O=C1C=C(Nc2ccc(OCc3cn(Cc4ccccc4)nn3)cc2)C(=O)c2ccccc21 [Compound 4a, 2-((4-((1-Benzyl-1H-1,2,3-triazol-4-yl)methoxy)phenyl)amino)naphthalene-1,4-dione] | -5 | 7 | 73 | 85.5 ± 19.6 | > 100000 | 71 | > 100 | 19 | 20 | 14 | 1 | 43 | 16 | 14 | 25 | 21.9 ± 3.9 | 16 | 5.1 ± 1.2 | 23.5 ± 5.8 | -16 | inhibition at 10 µM (IGF1R): -3%; inhibition at 10 µM (PIK3CA): 14%; inhibition at 10 µM (ERBB2 (Her-2)): 3%; IC50 (CDK2/cyclin A): 1670 ± 115 nM; inhibition at 10 µM (MAP2K1): 9%; IC50 (PDGFRA (PDGFRα)): 629 ± 87 nM; inhibition at 10 µM (AURKA): -3%; inhibition at 10 µM (CDK6/cyclinD3): 9%; IC50 (FLT4 (VEGFR3)): 554 ± 2 nM; inhibition at 10 µM (FLT4 (VEGFR3); read-out: Kinase inhibition (%) FLT4 (VEGFR3)): 87%; inhibition at 10 µM (WEE1): 6%; inhibition at 10 µM (ROS1): -6%; inhibition at 10 µM (CHEK1): -20%; inhibition at 10 µM (NTRK3 (TrkC)): 40%; inhibition at 10 µM (BRAF): 3%; Apoptosis induction (nuclear morphology) (AsPC-1 cells [1]): characteristic features of apoptosis including densely packed chromatin within the nucleus as well as nuclear fragmentation; Effect on cell cycle distribution (S and G2/M phases) (AsPC-1 cells [2]): dose-dependently increased the number of cells in the S phase and simultaneously reduced the cells in G2/M phase |
| O=C1C=C(Nc2ccc(OCc3cn(Cc4ccc(Br)cc4)nn3)cc2)C(=O)c2ccccc21 [Compound 4b, 2-((4-((1-(4-Bromobenzyl)−1H-1,2,3-triazol-4 yl)methoxy)phenyl)amino) naphthalene-1,4-dione] | -9 | 2 | 32 | 50.9 ± 8.8 | 1300 ± 400 | 37 | > 100 | 9 | -19 | 5 | -9 | 4 | 2 | 1 | -10 | 56.9 ± 4.3 | 17 | 2 ± 1.2 | 30.7 ± 2.2 | -17 | inhibition at 10 µM (NTRK2 (TrkB)): 13%; inhibition at 10 µM (FLT3): -3%; inhibition at 10 µM (MET): -8% |
